How the values were obtained:
[1] = test system: dd-strain male mice; assay: Acute toxicity test (minimum lethal dose, oral); assay type: in vivo; settings: oral administration, three mice per group, mortality seven days after administration
Description: Test compounds were orally administered to groups of dd-strain male mice weighing 20 ± 1 g, each group consisting of three mice. Seven days after the administration, minimum lethal dose (MLD) of each compound was determined by observing the mortality.

[2] = target: T1, A₂ receptor (Rattus norvegicus, UniProt P30543); assay: Adenosine A₂ receptor binding test (³H-NECA binding); settings: ³H-NECA binding, rat corpus striatum, read-out: Inhibition (%) A₂ Receptor; for inhibition at 100 µM: 10⁻⁴M; for inhibition at 10 µM: 10⁻⁵M; for inhibition at 1 µM: 10⁻⁶M; for inhibition at 0.1 µM: 10⁻⁷M
T1 construct: from tissue; host or cells: rat corpus striatum membrane preparation
T1 sequence (P30543 whole entry): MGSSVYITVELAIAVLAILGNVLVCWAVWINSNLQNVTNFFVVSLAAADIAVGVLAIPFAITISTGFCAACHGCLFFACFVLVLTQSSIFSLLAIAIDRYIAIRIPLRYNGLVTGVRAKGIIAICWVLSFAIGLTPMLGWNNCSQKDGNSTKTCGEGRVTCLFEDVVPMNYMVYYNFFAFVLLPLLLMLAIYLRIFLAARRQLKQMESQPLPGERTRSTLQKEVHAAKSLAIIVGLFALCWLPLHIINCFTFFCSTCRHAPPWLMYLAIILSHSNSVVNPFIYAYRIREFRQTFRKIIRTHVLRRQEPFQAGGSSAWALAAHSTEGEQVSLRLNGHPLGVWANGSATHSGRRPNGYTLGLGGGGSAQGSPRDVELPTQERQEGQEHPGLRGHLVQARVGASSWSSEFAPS
Description: The similar procedure as in the above-described adenosine A₁ receptor binding test was repeated using rat corpus striatum to obtain the final precipitate of the tissue thereof. The precipitate was suspended in 50 mM Tris HCl buffer containing 10 mM magnesium chloride and 0.02 unit/mg tissue of adenosine deaminase (manufactured by Sigma Co.) to give a tissue concentration of 5 mg (wet weight)/ml.
The mixture solution was allowed to stand at 25°C for 120 minutes and then treated in the same manner as in the adenosine A₁ receptor binding test to determine the radioactivity bound to the A₂ receptors.
The inhibition rate of the test compound against the binding of A₂ receptor (³H-NECA binding) was calculated by the following equation: [formula] [Notes] • 1.

Compound	MLD [1] [mg/kg]	inhibition at 100 µM [2] [%]	inhibition at 10 µM [2] [%]	inhibition at 1 µM [2] [%]	inhibition at 0.1 µM [2] [%]
COc1ccc(/C=C/c2nc3c([nH]2)c(=O)n(C)c(=O)n3C)c(OC)c1 [Compound 27, (E)-8-(2,4-Dimethoxystyryl)theophylline]	> 100	90	89	–	–
CCn1c(=O)c2[nH]c(/C=C/c3ccc(OC)c(Br)c3)nc2n(CC)c1=O [Compound 55, (E)-8-(3-Bromo-4-methoxystyryl)-1,3-diethylxanthine]	> 100	81	77	65	56
CCn1c(=O)c2c(nc(/C=C/c3cc(OC)c(OC)cc3[N+](=O)[O-])n2C)n(CC)c1=O [Compound 62, (E)-8-(4,5-Dimethoxy-2-nitrostyryl)-1,3-diethyl-7-methylxanthine]	> 300	–	–	–	–
COc1cccc(/C=C/c2nc3c(c(=O)n(C)c(=O)n3C)n2C)c1OC [Compound 26, (E)-8-(2,3-Dimethoxystyryl)caffeine]	> 300	79	75	59	27
CCOc1ccc(/C=C/c2nc3c([nH]2)c(=O)n(CC)c(=O)n3CC)cc1 [Compound 35, (E)-8-(4-Ethoxystyryl)-1,3-diethylxanthine]	> 100	–	–	71	54
CCn1c(=O)c2c(nc(/C(C)=C/c3ccccc3)n2C)n(CC)c1=O [Compound 72, (E)-1,3-Diethyl-7-methyl-8-(α-methylstyryl)xanthine]	> 300	–	–	–	–
CCn1c(=O)c2[nH]c(/C=C/c3ccc(F)c(F)c3)nc2n(CC)c1=O [Compound 53, (E)-8-(3,4-Difluorostyryl)-1,3-diethylxanthine]	> 300	–	–	–	–
CCn1c(=O)c2[nH]c(/C=C/c3cccc(OC)c3OC)nc2n(CC)c1=O [Compound 3, (E)-8-(2,3-Dimethoxystyryl)-1,3-diethylxanthine]	> 300	–	–	–	–
CCn1c(=O)c2[nH]c(/C=C/c3cccc(Cl)c3)nc2n(CC)c1=O [Compound 69, (E)-8-(3-Chlorostyryl)-1,3-diethylxanthine]	> 100	–	–	–	–
CCn1c(=O)c2[nH]c(/C=C/c3cccc(F)c3)nc2n(CC)c1=O [Compound 65, (E)-1,3-Diethyl-8-(3-fluorostyryl)xanthine]	> 100	–	–	64	64
CCCOc1ccc(/C=C/c2nc3c([nH]2)c(=O)n(CC)c(=O)n3CC)cc1 [Compound 37, (E)-1,3-Diethyl-8-(4-propoxystyryl)xanthine]	> 100	–	–	60	56
COc1ccc(/C=C/c2nc3c([nH]2)c(=O)n(C)c(=O)n3C)c(Cl)c1OC [Compound 51, (E)-8-(2-Chloro-3,4-dimethoxystyryl)theophylline]	> 100	91	88	–	–
COc1cc(C)c(/C=C/c2nc3c([nH]2)c(=O)n(C)c(=O)n3C)cc1C [Compound 29, (E)-8-(4-Methoxy-2,5-dimethylstyryl)theophylline]	> 100	–	–	–	–
CCn1c(=O)c2[nH]c(/C=C/c3ccccc3OC)nc2n(CC)c1=O [Compound 45, (E)-1,3-Diethyl-8-(2-methoxystyryl)xanthine]	> 100	–	–	–	–
CCn1c(=O)c2[nH]c(/C=C/c3cc(C(F)(F)F)cc(C(F)(F)F)c3)nc2n(CC)c1=O [Compound 85, (E)-8-[3,5-Bis(trifluoromethyl)styryl]-1,3-diethylxanthine]	> 100	–	–	–	–
CCn1c(=O)c2[nH]c(/C=C/c3ccc(C(F)(F)F)cc3)nc2n(CC)c1=O [Compound 73, (E)-1,3-Diethyl-8-(4-trifluoromethylstyryl)xanthine]	> 100	–	–	–	–
CCn1c(=O)c2[nH]c(/C=C/c3cc(OC)c(OC)cc3[N+](=O)[O-])nc2n(CC)c1=O [Compound 61, (E)-8-(4,5-Dimethoxy-2-nitrostyryl)-1,3-diethylxanthine]	> 100	–	–	–	–
CCn1c(=O)c2[nH]c(/C=C/c3cc(OC)c(OC)cc3Br)nc2n(CC)c1=O [Compound 59, (E)-8-(2-Bromo-4,5-dimethoxystyryl)-1,3-diethylxanthine]	> 100	–	–	–	–
CCn1c(=O)c2[nH]c(/C=C/c3cc(C)c(OC)cc3C)nc2n(CC)c1=O [Compound 11, (E)-1,3-Diethyl-8-(4-methoxy-2,5-dimethylstyryl)xanthine]	> 300	–	–	–	–
CCn1c(=O)c2c(nc(/C=C/c3ccc(O)c(C)c3C)n2C)n(CC)c1=O [Compound 122, (E)-1,3-Diethyl-8-(4-hydroxy-2,3-dimethylstyryl)-7-methylxanthine]	> 100	–	–	–	–

Compound	MLD [1] [mg/kg]	inhibition at 100 µM [2] [%]	inhibition at 10 µM [2] [%]	inhibition at 1 µM [2] [%]	inhibition at 0.1 µM [2] [%]
COc1cccc(/C=C/c2nc3c(=O)n(C)c(=O)n(C)c3[nH]2)c1OC [Compound 25, (E)-8-(2,3-Dimethoxystyryl)theophylline]	> 100	70	76	–	–
CCn1c(=O)c2[nH]c(/C=C/c3ccc(O)cc3)nc2n(CC)c1=O [Compound 121, (E)-1,3-Diethyl-8-(4-hydroxystyryl)xanthine]	> 100	–	–	–	–
CCn1c(=O)c2[nH]c(/C=C/c3cccc(Oc4ccccc4)c3)nc2n(CC)c1=O [Compound 119, (E)-1,3-Diethyl-8-(3-phenoxystyryl)xanthine]	> 100	–	–	–	–
CCn1c(=O)c2c(nc(/C=C/c3ccc(OCCCCN)cc3)n2C)n(CC)c1=O [Compound 116, (E)-8-[4-(4-Aminobutoxy)styryl]-1,3-diethyl-7-methylxanthine]	> 100	–	–	–	–
CCn1c(=O)c2[nH]c(/C=C/c3ccc(OC)cc3OC)nc2n(CC)c1=O [Compound 5, (E)-8-(2,4-Dimethoxystyryl)-1,3-diethylxanthine]	> 100	–	–	–	–
CCn1c(=O)c2[nH]c(/C=C/c3ccc(N(C)C)cc3)nc2n(CC)c1=O [Compound 99, (E)-8-[4-(N,N-Dimethylamino)styryl]-1,3-diethylxanthine]	> 100	–	–	64	25
COc1cc(C)c(/C=C/c2nc3c(c(=O)n(C)c(=O)n3C)n2C)cc1C [Compound 30, (E)-8-(4-Methoxy-2,5-dimethylstyryl)caffeine]	> 100	–	–	–	–
CCn1c(=O)c2c(nc(/C=C/c3cc(OC)c(OC)cc3Br)n2C)n(CC)c1=O [Compound 60, (E)-8-(2-Bromo-4,5-dimethoxystyryl)-1,3-diethyl-7-methylxanthine]	> 100	84	75	–	–
COc1ccc(/C=C/c2nc3c([nH]2)c(=O)n(C)c(=O)n3C)cc1Br [Compound 57, (E)-8-(3-Bromo-4-methoxystyryl)theophylline]	> 100	–	–	–	–
CCn1c(=O)c2[nH]c(/C=C/c3cc(C)ccc3C)nc2n(CC)c1=O [Compound 33, (E)-8-(2,5-Dimethylstyryl)-1,3-diethylxanthine]	> 300	92	93	–	–
CCn1c(=O)c2[nH]c(/C(C)=C/c3ccccc3)nc2n(CC)c1=O [Compound 71, (E)-1,3-Diethyl-8-(α-methylstyryl)xanthine]	> 100	–	–	–	–
CCOC(=O)COc1ccc(/C=C/c2nc3c(c(=O)n(CC)c(=O)n3CC)n2C)cc1 [Compound 117, (E)-8-(4-Ethoxycarbonylmethoxystyryl)-1,3-diethyl-7-methylxanthine]	> 100	–	–	–	–
CCn1c(=O)c2[nH]c(/C=C/c3ccc(-c4ccccc4)cc3)nc2n(CC)c1=O [Compound 100, (E)-1,3-Diethyl-8-(4-phenylstyryl)xanthine]	> 100	–	–	–	–
CCn1c(=O)c2c(nc(/C=C/c3ccccc3OC)n2C)n(CC)c1=O [Compound 46, (E)-1,3-Diethyl-8-(2-methoxystyryl)-7-methylxanthine]	> 100	–	–	–	–
CCn1c(=O)c2[nH]c(/C=C/c3ccc(F)c(Cl)c3)nc2n(CC)c1=O [Compound 104, (E)-8-(3-Chloro-4-fluorostyryl)-1,3-diethylxanthine]	> 100	–	–	–	–
CCn1c(=O)c2c(nc(/C=C/c3ccc(OC)c(O)c3)n2C)n(CC)c1=O [Compound 111, (E)-1,3-Diethyl-8-(3-hydroxy-4-methoxystyryl)-7-methylxanthine]	> 100	–	–	–	–
COc1ccc(/C=C/c2nc3c(c(=O)n(C)c(=O)n3C)n2C)c(OC)c1 [Compound 28, (E)-8-(2,4-Dimethoxystyryl)caffeine]	> 300	99	86	80	46
CCn1c(=O)c2c(nc(/C=C/c3ccc(OCC(=O)O)cc3)n2C)n(CC)c1=O [Compound 118, (E)-8-(4-Carboxymethoxystyryl)-1,3-diethyl-7-methylxanthine]	> 100	–	–	–	–
CCn1c(=O)c2[nH]c(/C(F)=C\c3ccccc3)nc2n(CC)c1=O [Compound 75, (E)-1,3-Diethyl-8-(α-fluorostyryl)xanthine]	> 100	–	–	–	–
CCn1c(=O)c2c(nc(/C=C/c3cc(F)cc(F)c3)n2C)n(CC)c1=O [Compound 88, (E)-8-(3,5-Difluorostyryl)-1,3-diethyl-7-methylxanthine]	> 100	–	–	–	–
